How the values were obtained:
[1] = in the combination of dasatinib and crizotinib, administered once daily, children
[2] = cited from earlier work
[3] = Pharmacokinetic studies of crizotinib and dasatinib in patients; format: in vivo, human
[4] = test system: ERK (p-ERK/total ERK) in peripheral-blood mononuclear cells; assay: Total and phosphorylated ERK in PBMC before and 3 hours after dasatinib; format: in vivo, human; conditions: after dosing of dasatinib, paired samples
BCRP = conditions: cited from earlier work
p-glycoprotein = conditions: cited from earlier work

C[C@@H](Oc1cc(-c2cnn(C3CCNCC3)c2)cnc1N)c1c(Cl)ccc(F)c1Cl [Crizotinib]
maximum tolerated dose (MTD) [1]: 215 mg/m^2 | CNS penetration [2]: minimal and probably inadequate for the treatment of primary CNS cancers | AUC0→t ([3]; dose 215 mg/m^2, day 1, 8 patients, t=∞, median (range)): 5,326.3 (2,068.3 to 12,182.9) ng/mL/hr | AUC0→t ([3]; dose 215 mg/m^2, day 14, 4 patients, t=24 hours, median (range)): 3,118.9 (1,693.8 to 4,278.5) ng/mL/hr | Tmax ([3]; human, in vivo): 4.1 h | Cmax ([3]; human, in vivo, 165 mg/m2): 155.5 (55.8 to 324.4) ng/mL | Cmax ([3]; human, in vivo, 165 mg/m2, Cmax): 0.156 µg/mL | half-life ([3]; human, in vivo, elimination half-life, crizotinib day 1 of therapy, 25 patients, median, range 9.8 to 34.7): 13.1 h | half-life ([3]; human, in vivo, elimination half-life, crizotinib day 14 of therapy, 19 patients, median, range 8.0 to 36.5): 12.8 h

Cc1nc(Nc2ncc(C(=O)Nc3c(C)cccc3Cl)s2)cc(N2CCN(CCO)CC2)n1 [Dasatinib]
change in ratio of p-ERK/total ERK in PBMC [4]: No statistically significant changes | maximum tolerated dose (MTD) [1]: 50 mg/m^2 | substrate of BCRP (BCRP): substrate of p-glycoprotein and BCRP | CNS penetration [2]: more limited than initially recognized | substrate of p-glycoprotein (p-glycoprotein): substrate of p-glycoprotein | Tmax ([3]; human, in vivo): 2.1 h | half-life ([3]; human, in vivo): 4.4 h | AUC0→t ([3]; human, in vivo, 50 mg/m2): 593.8 (388.1 to 1,521.1) ng/mL/hr | Cmax ([3]; human, in vivo, 50 mg/m2): 0.12 µg/mL | AUC0→t ([3]; human, in vivo, 65 mg/m2): 863.9 (721.9 to 1,006) ng/mL/hr | Cmax ([3]; human, in vivo, 65 mg/m2): 0.209 µg/mL | apparent oral clearance ([3]; human, in vivo, po): 1,328 mL/min/m^2

Source: publication PMC5980705 (Pediatric blood & cancer, 2018)
